In patent US20110207759A1, “METHOD FOR TREATMENT OF ATHEROSCLEROTIC DISEASE” (priority 2010, published 2011):
Where two headings read alike, the source gives them in different places.

Legend:
[1] = system: statin-treated patients with atherosclerotic coronary or vascular disease or coronary risk equivalent; assay: Carotid B-mode ultrasound: change in carotid intima-media thickness (CIMT), ARBITER 6-HALTS trial; assay type: in vivo, human; conditions: for Change in CIMT: 8 and 14 months; for Change in CIMT / Change in CIMT - Mean CIMT / Change in CIMT - Max CIMT: added to statin; for Change in CIMT - Mean CIMT / Change in CIMT - Max CIMT / Change in mean CIMT / Change from baseline CIMT, maximal thickness / Change from baseline CIMT, mean thickness: mean ± SE; for Change in mean CIMT: LOCF; for Effect of increased cumulative drug exposure on CIMT: exploratory analysis, quartiles of adherence × dose × duration; for Change from baseline CIMT, maximal thickness / Change from baseline CIMT, mean thickness: last observation carried forward, all subjects (ezetimibe n=161, niacin n=154)
From the text: (§1) Endpoints: The predefined primary endpoint was the between-group difference in the change in mean CIMT after 14 months. Secondary endpoints included the change in lipid values, a composite endpoint consisting of major adverse cardiovascular events (coronary heart disease death, myocardial infarction, myocardial revascularization, admission to the hospital for an acute coronary syndrome), drug discontinuation due to adverse effects, and health-related quality of life (Schweikert et al., 2008). Clinical cardiovascular endpoints were adjudicated by consensus of two members of the data advisory committee blinded to treatment assignment.
Carotid B-mode Ultrasound: Carotid ultrasonography was performed using a Sonosite Micromax ultrasound system (Bothell, Wash.) equipped with a broadband linear array probe (13 MHz). Participants underwent 3 ultrasound examinations during the study at baseline, 8 and 14 months. Except for the initial 20 baseline examinations performed at the Washington Adventist site, a single sonographer performed all ultrasound examinations. Images were obtained of the far wall of the distal 1 centimeter of the right and left common carotid arteries in the anterior and lateral views. A total of eight images (2 complete sets of 4 separate images) were obtained with standardized ultrasound settings. Baseline CIMT images were used to localize the site of imaging in serial images. Digitized still images from an electrocardiographically-defined diastolic frame were quantitated off-line. A single observer unaware of treatment assignment and patient identification performed measurements of mean and maximal CIMT. Focal atherosclerotic plaque was excluded from the site of CIMT measurement. All measurements were performed in duplicate using an automated border detection algorithm. […] Reader drift was evaluated using a standard image set (10 CIMT images from different patients) which the sonographer serially quantified every 6 months.
Statistical analysis: The primary endpoint was the change in mean CIMT from baseline to 14 months between the niacin and ezetimibe treatment groups. […] Clinical and carotid imaging data were held in separate databases for the duration of the trial. Between-group data for continuous variables were assessed with a t-test for independent variables or a Mann-Whitney U test as appropriate. A chi-square test was used for categorical variables. Kaplan-Meier survival analysis was performed using the log rank test. All statistical analyses were performed using SPSS software (version 16, SPSS Inc., Chicago, Ill.). Values are reported as mean±standard deviation or standard error, and median (inter-quartile range) for non-normal distributions. A 2-sided P value of 0.05 was considered statistically significant.
Study design: The study design prespecified the performance of a blinded, interim analysis according to the conservative method of O'Brien and Fleming with an alpha spending function (O'Brien et al. 1979). This was conducted after 180 subjects (60% of the planned sample size) completed the study. An independent data advisory committee evaluated the endpoint data without knowledge of treatment assignment. No formal, a priori stopping boundaries were set for the trial.

[2] = system: statin-treated patients with atherosclerotic coronary or vascular disease or coronary risk equivalent; assay: Major adverse cardiovascular events (composite clinical endpoint); assay type: in vivo, human; conditions: 14-month study; for Cardiovascular death (number of events) / Coronary revascularization procedure (number of events) / Myocardial infarction (number of events) / Subjects experiencing a composite clinical cardiovascular endpoint (major adverse cardiovascular events): ezetimibe N=165, niacin N=160
From the text: as §1

[3] = system: statin-treated patients with atherosclerotic coronary or vascular disease or coronary risk equivalent; conditions: for Deaths: of 176 ezetimibe / of 187 niacin enrolled
From the text: as §1

[4] = system: statin-treated patients with atherosclerotic coronary or vascular disease or coronary risk equivalent; assay: Fasting plasma lipids, glucose and C-reactive protein during treatment; conditions: for HDL-C / LDL-C / Total Cholesterol / Final change in HDL-C / Final change in LDL-C: added to statin; for HDL-C / LDL-C / Total Cholesterol / Total cholesterol, final values / HDL-C, final values / LDL-C, final values: mean ± SD; for C-reactive protein / Triglycerides: median (inter-quartile range); for Change from baseline in LDL-C and triglycerides: 315 patients, baseline to final; for Final change in HDL-C / Final change in LDL-C: baseline to 14 months; for Total cholesterol, final values / HDL-C, final values / LDL-C, final values / Triglycerides, final values / hsCRP, final values: study completion; for Total cholesterol, final values: n=315 (ezetimibe 161, niacin 154), last observation carried forward; for HDL-C, final values / LDL-C, final values / Triglycerides, final values / hsCRP, final values: n=315; for Triglycerides, final values / hsCRP, final values: median (interquartile range);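 for all read-outs here: plasma drawn after an overnight fast, LDL-C determined by direct assay and C-reactive protein by high-sensitivity immunoturbidimetry with monoclonal anti-CRP antibodies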
Protocol: Study population: This prospective, randomized, parallel group, open-label, blinded endpoint study was conducted at two centers, Walter Reed Army Medical Center, a university-affiliated, suburban, tertiary care military medical center, and the Washington Adventist Hospital, a private tertiary care hospital located in Takoma Park, Md. The institutional review boards of each facility approved the study, and all volunteers provided written, informed consent. Included subjects were men and women ≧30 years old with either known atherosclerotic coronary or vascular disease (N=279) or a coronary risk equivalent diagnosis including diabetes mellitus (N=38), a 10-year coronary heart disease Framingham risk score ≧20% (N=26), or a coronary calcium score above 200 or 400 (N=20) for women and men respectively.
Randomization: Three hundred sixty-three patients were enrolled in the trial. […] Randomization was performed using a computer-generated sequence of random numbers. There were no protocol-directed changes in statin medications during the study.
Cardiovascular risk variables: Following an overnight fast, laboratory measurements included plasma total cholesterol, LDL-C, HDL-C, triglycerides, C-reactive protein, liver-associated enzymes and glucose at baseline, 2, 8 and 14 months. LDL-C was measured using a direct assay. C-reactive protein was measured with a high-sensitivity, commercially available immunoturbidimetric assay, which uses monoclonal antibodies to CRP (Roche Cobas® Integra, Switzerland).

[5] = 8 months from baseline, 208 completers (ezetimibe N=111, niacin N=97)
[6] = 8 months from baseline, 208 completers
[7] = 14 months from baseline, completing subjects (ezetimibe n=111, niacin n=97)
[8] = Quartile 1 (lowest) of cumulative drug exposure (adherence × dose × treatment duration)
[9] = Quartile 2 of cumulative drug exposure
[10] = Quartile 3 of cumulative drug exposure
[11] = Quartile 4 (highest) of cumulative drug exposure, 14 months
[12] = both, human, in vivo, 14 months
[13] = 2 Months, 208 subjects who completed 14 month study

O=C(O)c1cccnc1 [Niacin, niacin]
Change in CIMT ([1]; 208 completers): significant reduction in mean and maximal CIMT (regression) | Change in CIMT - Mean CIMT [1, 5]: −0.0102 ± 0.0030 mm | Change in CIMT - Max CIMT [1, 6]: −0.0128 ± 0.0043 mm | Change in CIMT - Max CIMT [1, 7]: −0.0181 ± 0.0050 mm | Change in CIMT - Mean CIMT [1, 7]: −0.0142 ± 0.0041 mm | Change in CIMT - Mean CIMT ([1]; 14 months from baseline, completing subjects (ezetimibe n=111, niacin n=97), listed as ERN): −0.0142±0.0041 mm | Change in mean CIMT [1, 8]: −0.0052 ± 0.0041 mm | Change in mean CIMT [1, 9]: −0.0073 ± 0.0027 mm | Change in mean CIMT [1, 10]: −0.0148 ± 0.0060 mm | Change in mean CIMT [1, 11]: −0.0128 ± 0.0078 mm | Change in mean CIMT ([1]; Quartile 4 (highest) of cumulative drug exposure, 14 months, listed as ERN): −0.0128±0.0078 mm | Effect of increased cumulative drug exposure on CIMT [1]: regression of CIMT | Change from baseline CIMT, maximal thickness [1]: −0.0124 ± 0.0036 mm | Change from baseline CIMT, mean thickness [1]: −0.0102 ± 0.0026 mm | Change from baseline CIMT, maximal thickness ([1]; listed as niacin): −0.0124±0.0036 mm | Change from baseline CIMT, mean thickness ([1]; listed as niacin): −0.0102±0.0026 mm | Incidence of major adverse cardiovascular events [2]: 1.3% | Cardiovascular death (number of events) [2]: 1 | Coronary revascularization procedure (number of events) [2]: 0 | Myocardial infarction (number of events) [2]: 1 | Subjects experiencing a composite clinical cardiovascular endpoint (major adverse cardiovascular events) [2]: 2 subjects | Cutaneous flushing reported [3, 12]: 36.1% | Subjects who did not complete the study ([3]; in vivo): 28 | Subjects who did not complete the study (percent) ([3]; in vivo): 14.9% | Withdrawals ([3]; in vivo): 27 | Withdrawals with adverse drug effects cited as the reason ([3]; of 9 ezetimibe / of 27 niacin withdrawals): 17 | Deaths [3]: 1 | HDL-C ([4]; 2 Months, 208 completers): 48.9 ± 10.6 mg/dL | LDL-C ([4]; 2 Months, 208 completers): 66.2 ± 18.1 mg/dL | C-reactive protein ([4]; 2 Months, 208 completers): 1.1 (0.6-3.1) mg/L | Triglycerides ([4]; 2 Months, 208 completers): 88 (69-125) mg/dL | Total Cholesterol [4, 13]: 131.0 ± 22.9 mg/dL | HDL-C ([4]; 8 Months, 208 completers): 50.7 ± 11.6 mg/dL | LDL-C ([4]; 8 Months, 208 completers): 67.1 ± 19.5 mg/dL | Total Cholesterol ([4]; 8 Months, 208 completers): 133.6 ± 25.5 mg/dL | C-reactive protein ([4]; 8 Months, 208 completers): 1.1 (0.5-2.4) mg/L | Triglycerides ([4]; 8 Months, 208 completers): 88 (66-123) mg/dL | HDL-C ([4]; 14 Months, 208 completers): 49.9 ± 12.2 mg/dL | LDL-C ([4]; 14 Months, 208 completers): 70.5 ± 23.9 mg/dL | Total Cholesterol ([4]; 14 Months, 208 completers): 136.7 ± 29.3 mg/dL | C-reactive protein ([4]; 14 Months, 208 completers): 1.0 (0.4-2.9) mg/L | Triglycerides ([4]; 14 Months, 208 completers): 90 (69-138) mg/dL | Change from baseline in LDL-C and triglycerides [4]: Significant reductions | Final change in HDL-C ([4]; 208 completers): +7.5±9.2 mg/dL | Final change in LDL-C ([4]; 208 completers): -10.0 ± 24.5 mg/dL | Total cholesterol, final values [4]: 137.6 ± 30.5 mg/dL | HDL-C, final values [4]: 49.7 ± 11.5 mg/dL | LDL-C, final values [4]: 72.7 ± 25.9 mg/dL | Triglycerides, final values [4]: 91 (69-134) mg/dl | hsCRP, final values [4]: 1.0 (0.4-2.3) mg/l

O=C1[C@H](CC[C@H](O)c2ccc(F)cc2)[C@@H](c2ccc(O)cc2)N1c1ccc(F)cc1 [Ezetimibe, ezetimibe]
Change in CIMT ([1]; 208 completers): No net change | Change in CIMT - Mean CIMT [1, 5]: 0.0014 ± 0.0020 mm | Change in CIMT - Max CIMT [1, 6]: −0.0028 ± 0.0031 mm | Change in CIMT - Max CIMT [1, 7]: −0.0009 ± 0.0039 mm | Change in CIMT - Mean CIMT [1, 7]: −0.0007 ± 0.0035 mm | Change in mean CIMT [1, 8]: −0.0071 ± 0.0031 mm | Change in mean CIMT [1, 9]: −0.0051 ± 0.0036 mm | Change in mean CIMT [1, 10]: −0.0009 ± 0.0067 mm | Change in mean CIMT [1, 11]: 0.0067 ± 0.0059 mm | Change in mean CIMT ([1]; Quartile 4 (highest) of cumulative drug exposure, 14 months, listed as ezetimibe): 0.0067±0.0059 mm | Effect of increased cumulative drug exposure on CIMT [1]: progression of CIMT | Change from baseline CIMT, maximal thickness [1]: −0.0005 ± 0.0029 mm | Change from baseline CIMT, mean thickness [1]: −0.0016 ± 0.0024 mm | Change from baseline CIMT, maximal thickness ([1]; listed as ezetimibe): −0.0005±0.0029 mm | Change from baseline CIMT, mean thickness ([1]; listed as ezetimibe): −0.0016±0.0024 mm | Incidence of major adverse cardiovascular events [2]: 5.8% | Cardiovascular death (number of events) [2]: 5 | Coronary revascularization procedure (number of events) [2]: 3 | Myocardial infarction (number of events) [2]: 3 | Subjects experiencing a composite clinical cardiovascular endpoint (major adverse cardiovascular events) [2]: 9 subjects | Withdrawals with adverse drug effects cited as the reason [3, 12]: 3 | Subjects who did not complete the study ([3]; in vivo): 16 | Subjects who did not complete the study (percent) ([3]; in vivo): 9.1% | Withdrawals ([3]; in vivo): 9 | Deaths [3]: 7 | HDL-C ([4]; 2 Months, 208 completers): 42.2 ± 8.5 mg/dL | LDL-C ([4]; 2 Months, 208 completers): 60.1 ± 16.1 mg/dL | C-reactive protein ([4]; 2 Months, 208 completers): 1.2 (0.6-3.0) mg/L | Triglycerides ([4]; 2 Months, 208 completers): 100 (78-140) mg/dL | Total Cholesterol [4, 13]: 120.2 ± 20.6 mg/dL | HDL-C ([4]; 8 Months, 208 completers): 41.1 ± 9.0 mg/dL | LDL-C ([4]; 8 Months, 208 completers): 61.6 ± 17.2 mg/dL | Total Cholesterol ([4]; 8 Months, 208 completers): 122.4 ± 21.5 mg/dL | C-reactive protein ([4]; 8 Months, 208 completers): 1.3 (0.6-2.9) mg/L | Triglycerides ([4]; 8 Months, 208 completers): 107 (78-153) mg/dL | HDL-C ([4]; 14 Months, 208 completers): 40.5 ± 7.9 mg/dL | LDL-C ([4]; 14 Months, 208 completers): 66.1 ± 18.8 mg/dL | Total Cholesterol ([4]; 14 Months, 208 completers): 127.8 ± 22.8 mg/dL | C-reactive protein ([4]; 14 Months, 208 completers): 0.6 (0.6-3.1) mg/L | Triglycerides ([4]; 14 Months, 208 completers): 113 (84-150) mg/dL | Change from baseline in LDL-C and triglycerides [4]: Significant reductions | Final change in HDL-C ([4]; 208 completers): -2.8 ± 5.7 mg/dL | Final change in LDL-C ([4]; 208 completers): -17.6 ± 20.1 mg/dL | Total cholesterol, final values [4]: 127.5 ± 24.8 mg/dL | HDL-C, final values [4]: 41.1 ± 8.5 mg/dL | LDL-C, final values [4]: 65.5 ± 20.0 mg/dL | Triglycerides, final values [4]: 111 (82-144) mg/dl | hsCRP, final values [4]: 1.0 (0.5-2.9) mg/l
